What was measured:
Details in all cases: exposure time: 72 h
E13 [1] = patient-derived glioblastoma stem cells of classical subtype; assay: surviving fraction (nuclei count normalised to DMSO); higher = more cells surviving (less toxic)
E21 [2] = patient-derived glioblastoma stem cells of mesenchymal subtype; assay: as above
E28 [3] = patient-derived glioblastoma stem cells of classical subtype; assay: as above
E31 [4] = patient-derived glioblastoma stem cells of proneural subtype; assay: as above
E34 [5] = patient-derived glioblastoma stem cells of proneural subtype; assay: as above
E57 [6] = patient-derived glioblastoma stem cells of mesenchymal subtype; assay: as above
FT3469 [7] = normal neural stem cell line; assay: as above
E13 [8] = assay: phenotypic distance (Euclidean, principal components) from DMSO controls (arbitrary units); higher = stronger morphological change
E21 [9] = assay: as above
E28 [10] = assay: as above
E31 [11] = assay: as above
E34 [12] = assay: as above
E57 [13] = assay: as above
FT3469 [14] = assay: as above
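Throughout, for phenotypic distance (Euclidean, principal components) from DMSO controls: cell Painting imaging in 384-well plates, CellProfiler features reduced to at least 20 principal components, Euclidean distance versus same-plate DMSO vehicle wells (0.1% v/v), median over six images per well.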
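Throughout, for surviving fraction (nuclei count normalised to DMSO): nuclei counted by high-content imaging of Hoechst-stained cells in laminin-coated 384-well plates, relative to 0.1% DMSO vehicle wells, with staurosporine as cell-death control.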

NCCNc1ccc(NCCN)c2c1C(=O)c1ccncc1C2=O [Pixantrone dimaleate]
Details	phenotypic distance	surviving fraction
E13 [1], 4.1 nM	–	0.883
E13 [1], 12.3 nM	–	0.94
E13 [1], 37 nM	–	0.916
E13 [1], 111.1 nM	–	0.798
E13 [1], 333.3 nM	–	0.48
E13 [1], 1000 nM	–	0.399
E13 [1], 3000 nM	–	0.383
E13 [8], 4.1 nM	2.19	–
E13 [8], 12.3 nM	0.616	–
E13 [8], 37 nM	0.772	–
E13 [8], 111.1 nM	1.76	–
E13 [8], 333.3 nM	4.4	–
E13 [8], 1000 nM	5.24	–
E13 [8], 3000 nM	4.99	–
E21 [2], 4.1 nM	–	0.991
E21 [2], 12.3 nM	–	0.812
E21 [2], 37 nM	–	0.904
E21 [2], 111.1 nM	–	0.733
E21 [2], 333.3 nM	–	0.619
E21 [2], 1000 nM	–	0.509
E21 [2], 3000 nM	–	0.364
E21 [9], 4.1 nM	0.691	–
E21 [9], 12.3 nM	0.873	–
E21 [9], 37 nM	0.996	–
E21 [9], 111.1 nM	2.7	–
E21 [9], 333.3 nM	4.95	–
E21 [9], 1000 nM	6	–
E21 [9], 3000 nM	5.53	–
E28 [3], 4.1 nM	–	0.677
E28 [3], 12.3 nM	–	0.604
E28 [3], 37 nM	–	0.524
E28 [3], 111.1 nM	–	0.418
E28 [3], 333.3 nM	–	0.349
E28 [3], 1000 nM	–	0.333
E28 [3], 3000 nM	–	0.216
E28 [10], 4.1 nM	2.06	–
E28 [10], 12.3 nM	2.09	–
E28 [10], 37 nM	2.43	–
E28 [10], 111.1 nM	3.32	–
E28 [10], 333.3 nM	3.6	–
E28 [10], 1000 nM	3.19	–
E28 [10], 3000 nM	4.63	–
E31 [4], 4.1 nM	–	0.539
E31 [4], 12.3 nM	–	0.566
E31 [4], 37 nM	–	0.397
E31 [4], 111.1 nM	–	0.327
E31 [4], 333.3 nM	–	0.312
E31 [4], 1000 nM	–	0.275
E31 [4], 3000 nM	–	0.142
E31 [11], 4.1 nM	2.15	–
E31 [11], 12.3 nM	1.85	–
E31 [11], 37 nM	2.43	–
E31 [11], 111.1 nM	3.58	–
E31 [11], 333.3 nM	2.86	–
E31 [11], 1000 nM	3.07	–
E31 [11], 3000 nM	4.34	–
E34 [5], 4.1 nM	–	0.839
E34 [5], 12.3 nM	–	0.771
E34 [5], 37 nM	–	0.637
E34 [5], 111.1 nM	–	0.702
E34 [5], 333.3 nM	–	0.686
E34 [5], 1000 nM	–	0.588
E34 [5], 3000 nM	–	0.492
E34 [12], 4.1 nM	0.885	–
E34 [12], 12.3 nM	0.947	–
E34 [12], 37 nM	1.52	–
E34 [12], 111.1 nM	3.49	–
E34 [12], 333.3 nM	3.78	–
E34 [12], 1000 nM	3.22	–
E34 [12], 3000 nM	1.77	–
E57 [6], 4.1 nM	–	0.955
E57 [6], 12.3 nM	–	0.897
E57 [6], 37 nM	–	0.79
E57 [6], 111.1 nM	–	0.555
E57 [6], 333.3 nM	–	0.346
E57 [6], 1000 nM	–	0.288
E57 [6], 3000 nM	–	0.24
E57 [13], 4.1 nM	0.987	–
E57 [13], 12.3 nM	0.95	–
E57 [13], 37 nM	1.45	–
E57 [13], 111.1 nM	3.37	–
E57 [13], 333.3 nM	6.17	–
E57 [13], 1000 nM	7.83	–
E57 [13], 3000 nM	8.45	–
FT3469 [7], 4.1 nM	–	0.869
FT3469 [7], 12.3 nM	–	0.795
FT3469 [7], 37 nM	–	0.763
FT3469 [7], 111.1 nM	–	0.623
FT3469 [7], 333.3 nM	–	0.666
FT3469 [7], 1000 nM	–	0.631
FT3469 [7], 3000 nM	–	0.565
FT3469 [14], 4.1 nM	1.02	–
FT3469 [14], 12.3 nM	1.28	–
FT3469 [14], 37 nM	1.5	–
FT3469 [14], 111.1 nM	2.03	–
FT3469 [14], 333.3 nM	1.76	–
FT3469 [14], 1000 nM	1.86	–
FT3469 [14], 3000 nM	2.37	–
